Laboratory results published in patent publication US20070072897A1, “Phenylaminopropanol derivatives and methods of their use” (Wyeth, priority 2005, published 2007).
Counter-ions that a name gives are not always drawn.

How the values were obtained:
human 5-HT2A receptor = target: T1, human 5-HT2A receptor (Homo sapiens, UniProt P28223); assay: 5-HT2A FLIPR assay (calcium response to DOI) in CHO cells; assay type: cell-based; conditions: for inhibition at 1 µM: CHO, read-out: 5-HT2A Percentage inhibition at 1 μM; for IC50: antagonist inhibition of 3 nM DOI stimulation, CHO cells, FLIPR
T1 construct: expressed in transfected cells; host or cells: CHO
Method: Cells are washed with PBS without Ca^2+ and 3 mL Trypsin is added to dissociate cells. After 3 minute incubation, 7 mL Trypsin Neutralizing Solution is added. Cells are then aspirated from flask and mixed in a 50 mL conical tube. 10 μL sample is used to count cells on a hemacytometer. […] Two 96-well drug plates are prepared for each cell plate. Plate 1 will contain compounds to be tested and plate 2 will contain the agonist DOI (3 nM) to activate a calcium response. Specific details of compound preparation are listed below. […] Outside wells are not used due to an edge effect seen in these cells. The reference compounds DOI and 5-HT are used as standard 5HT agonists. […] Standards for plate one are Vehicle, 1 μM DOI, and 3 nM MDL. […] On the day of the assay, test compound solutions of appropriate concentrations are diluted in assay buffer as described for single concentration testing. This procedure is followed to ensure that the solvent concentration is consistent across dilutions. The typical concentration testing range of compounds is 10^−10—10^−5 M in half log or full log increments. A 10 μM DOI stock is diluted to 60 nM and added to the respective wells. The pipeting station of the FLIPR will make an additional 20-fold dilution for a final concentration of 3 nM. Standards for this plate include Vehicle and 3 nM DOI. Contents of dye vial (Molecular Devices #R8090) are dissolved in 100 mL of 1×HBSS supplemented with 20 mM HEPES. Aliquots can be frozen at −20° C. for up to one week for future use. On the day of assay, dye is thawed and diluted to half concentration. […] Cells are allowed to adhere for 24 hours in 96-well plates. […] Cell, compound and DOI plates are loaded into the FLIPR machine. The baseline fluorescence level is read once every second for 1 minute. Compound (10 μL) is transferred from the compound plate to the cells and the fluorescence level recorded every 6 seconds for 2 minutes to determine any agonist activity. Baseline fluorescence is recorded again every second for 10 seconds. For antagonist determination, 10 μL of 3 nM DOI is transferred from the DOI plate to the cells and the fluorescence level recorded every 6 seconds for 5 minutes. The pipetting unit of the FLIPR machine completes all transfers. […] The data are log transformed prior to analysis.

human hNET = target: T2, human hNET (Homo sapiens, UniProt P23975); assay: Norepinephrine (NE) uptake assay in MDCK-Net6 cells; assay type: cell-based; conditions: [3H]NE uptake; for inhibition at 1 µM: MDCK-Net6 cells, read-out: hNET Percentage inhibition at 1 μM; for EC50: MDCK-Net6 cells stably transfected with hNET
T2 construct: expressed in transfected cells; host or cells: MDCK (MDCK-Net6)
T2 sequence (P23975 whole entry): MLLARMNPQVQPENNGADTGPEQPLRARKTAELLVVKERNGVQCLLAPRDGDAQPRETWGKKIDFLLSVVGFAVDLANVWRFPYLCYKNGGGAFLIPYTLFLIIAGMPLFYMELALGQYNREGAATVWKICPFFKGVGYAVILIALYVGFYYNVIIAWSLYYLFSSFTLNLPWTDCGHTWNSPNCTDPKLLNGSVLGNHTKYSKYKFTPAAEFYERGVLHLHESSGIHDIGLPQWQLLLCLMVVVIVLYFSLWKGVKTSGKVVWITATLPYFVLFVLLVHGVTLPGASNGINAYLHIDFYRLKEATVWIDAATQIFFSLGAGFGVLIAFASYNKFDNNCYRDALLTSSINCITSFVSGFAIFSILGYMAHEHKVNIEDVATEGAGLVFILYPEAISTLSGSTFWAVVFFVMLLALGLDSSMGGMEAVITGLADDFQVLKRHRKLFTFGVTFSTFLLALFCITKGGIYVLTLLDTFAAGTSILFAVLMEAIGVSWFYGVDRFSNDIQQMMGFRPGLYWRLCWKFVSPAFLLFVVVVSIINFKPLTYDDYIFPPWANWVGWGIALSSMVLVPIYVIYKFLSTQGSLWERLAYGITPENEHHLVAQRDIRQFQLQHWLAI

T1 sequence (P28223 whole entry): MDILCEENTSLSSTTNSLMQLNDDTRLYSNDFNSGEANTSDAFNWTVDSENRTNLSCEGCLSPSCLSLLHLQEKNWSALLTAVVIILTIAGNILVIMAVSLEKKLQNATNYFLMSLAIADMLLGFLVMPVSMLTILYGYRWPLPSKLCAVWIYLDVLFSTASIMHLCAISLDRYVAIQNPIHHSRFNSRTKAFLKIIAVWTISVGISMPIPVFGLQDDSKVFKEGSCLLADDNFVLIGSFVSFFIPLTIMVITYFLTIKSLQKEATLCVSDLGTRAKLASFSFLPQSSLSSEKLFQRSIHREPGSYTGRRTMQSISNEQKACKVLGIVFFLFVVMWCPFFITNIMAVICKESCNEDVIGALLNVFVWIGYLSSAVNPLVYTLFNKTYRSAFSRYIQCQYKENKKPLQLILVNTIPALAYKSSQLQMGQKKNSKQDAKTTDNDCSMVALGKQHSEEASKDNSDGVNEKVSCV

SMILES | inhibition at 1 µM (human 5-HT2A receptor) | inhibition at 1 µM (human hNET) | IC50 (human 5-HT2A receptor) | EC50 (human hNET)
CCCNC[C@@H](O)[C@H](c1ccccc1)n1ccc2cc(OCc3ccccc3)ccc21 [Example 84, (1S,2R)-1-[5-(benzyloxy)-1H-indol-1-yl]-1-phenyl-3-(propylamino)propan-2-ol hydrochloride] | 50% | 11% |  | 
NC[C@@H](O)[C@H](c1ccccc1)n1ccc2cc(OCc3ccccc3)ccc21 [Example 82, (1S,2R)-3-amino-1-[5-(benzyloxy)-1H-indol-1H-yl]-1-phenylpropan-2-ol hydrochloride] |  |  | 796 nM | 279 nM
CNC[C@@H](O)[C@H](c1ccccc1)N1CCc2cc(NC(=O)c3ccccc3)ccc21 [Example 74, N-{1-[(1S,2R)-2-Hydroxy-3-(methylamino)-1-phenylpropyl]-2,3-dihydro-1H-indol-5-yl}benzamide hydrochloride] | 24% |  |  | 365 nM
CNC[C@@H](O)[C@H](c1cccc(F)c1)N1C(=O)C2(CCCCC2)c2ccc(F)cc21 [Example 32, 6′-fluoro-1′-[(1S,2R)-1-(3-fluorophenyl)-2-hydroxy-3-(methylamino)propyl]spiro[cyclohexane-1,3′-indol]-2′(1′H)-one hydrochloride] | 95% |  |  | 43 nM
CNC[C@@H](O)[C@H](c1ccccc1)n1ccc2cc(OCc3cccc(OC)c3)ccc21 [Example 6, (1S,2R)-1-{5-[(3-methoxybenzyl)oxy]-1H-indol-1-yl}-3-(methylamino)-1-phenylpropan-2-ol hydrochloride] |  |  | 888 nM | 17 nM
CNC[C@@H](O)[C@H](c1cccc(F)c1)n1ccc2cc(OCc3ccccc3)ccc21 [Example 24, (1S,2R)-1-[5-(benzyloxy)-1H-indol-1-yl]-1-(3-fluorophenyl)-3-(methylamino)propan-2-ol hydrochloride] | 20% |  |  | 36 nM
CNC[C@@H](O)[C@H](c1ccccc1)n1ccc2cc(OCc3ccc(C)cc3)ccc21 [Example 16, (1S,2R)-3-(methylamino)-1-{5-[(4-methylbenzyl)oxy]-1H-indol-1-yl}-1-phenylpropan-2-ol hydrochloride] |  |  | 4120 nM | 37 nM
CC(C)NC[C@@H](O)[C@H](c1ccccc1)N1C(=O)C2(CCCCC2)c2cc(F)ccc21 [Example 101, 5′-fluoro-1′-[(1S,2R)-2-hydroxy-3-(isopropylamino)-1-phenylpropyl]spiro[cyclohexane-1,3′-indol]-2′(1′H)-one hydrochloride] | 22% | 0% |  | 
CNC[C@@H](O)[C@H](c1ccccc1)N1CCc2cc(NC(=O)c3cccc(Cl)c3)ccc21 [Example 72, 3-Chloro-N-{1-[(1S,2R)-2-hydroxy-3-(methylamino)-1-phenylpropyl]-2,3-dihydro-1H-indol-5-yl}benzamide hydrochloride] | 60% |  |  | 95 nM
CNC[C@@H](O)[C@H](c1ccccc1)N1C(=O)C2(CCCCC2)c2ccc(C#N)cc21 [Example 108, 1′-[(1S,2R)-2-hydroxy-3-(methylamino)-1-phenylpropyl]-2′-oxo-1′,2′-dihydrospiro[cyclohexane-1,3′-indole]-6′-carbonitrile hydrochloride] | 11% |  |  | 1260 nM
CNC[C@@H](O)[C@H](c1ccccc1)N1CCc2cc(NC(=O)C3CCCCC3)ccc21 [Example 76, N-{1-[(1S,2R)-2-Hydroxy-3-(methylamino)-1-phenylpropyl]-2,3-dihydro-1H-indol-5-yl}cyclohexanecarboxamide hydrochloride] | 45% | 54% |  | 
CCCNC[C@@H](O)[C@H](c1ccccc1)N1C(=O)C2(CCCCC2)c2cc(F)ccc21 [Example 102, 5′-fluoro-1′-[(1S,2R)-2-hydroxy-1-phenyl-3-(propylamino)propyl]spiro[cyclohexane-1,3′-indol]-2′(1′H)-one hydrochloride] |  | 0% | 895 nM | 
NC[C@@H](O)[C@H](c1ccccc1)N1C(=O)C2(CCCCC2)c2ccc(F)cc21 [Example 95, 1′-[(1S,2R)-3-amino-2-hydroxy-1-phenylpropyl]-6′-fluorospiro[cyclohexane-1,3′-indol]-2′(1′H)-one hydrochloride] | 44% | 7% |  | 
CNC[C@@H](O)[C@H](c1ccccc1)n1ccc2cc(OCc3ccccc3OC)ccc21 [Example 5, (1S,2R)-1-{5-[(2-methoxybenzyl)oxy]-1H-indol-1-yl}-3-(methylamino)-1-phenylpropan-2-ol hydrochloride] |  |  | 678 nM | 196 nM
CNC[C@@H](O)[C@H](c1ccccc1)n1ccc2cc(NC(=O)C3CCCCC3)ccc21 [Example 77, N-{1-[(1S,2R)-2-Hydroxy-3-(methylamino)-1-phenylpropyl]-1H-indol-5-yl}cyclohexanecarboxamide hydrochloride] | 51% | 60% |  | 
CN1CCN(C[C@@H](O)[C@H](c2ccccc2)n2ccc3cc(OCc4ccccc4)ccc32)CC1 [Example 91, (1S,2R)-1-[5-(benzyloxy)-1H-indol-1-yl]-3-(4-methylpiperazin-1-yl)-1-phenylpropan-2-ol hydrochloride] | 29% | 22% |  | 
CNC[C@@H](O)[C@H](c1ccccc1)n1ccc2cc(OC(C)c3ccccc3)ccc21 (mixture of isomers) [Example 17, (1S,2R)-3-(methylamino)-1-phenyl-1-[5-(1RS)-(1-phenylethoxy)-1H-indol-1-yl]propan-2-ol hydrochloride] |  |  | 2640 nM | 873 nM
CNC[C@@H](O)[C@H](c1ccccc1)N1C(=O)C2(CCCCC2)c2ccc(OC)cc21 [Example 106, 1′-[(1S,2R)-2-hydroxy-3-(methylamino)-1-phenylpropyl]-6′-methoxyspiro[cyclohexane-1,3′-indol]-2′(1′H)-one hydrochloride] |  |  | 615 nM | 908 nM
CC(C)NC[C@@H](O)[C@H](c1ccccc1)n1ccc2cc(OCc3ccccc3)ccc21 [Example 85, (1S,2R)-1-[5-(benzyloxy)-1H-indol-1-yl]-3-(isopropylamino)-1-phenylpropan-2-ol hydrochloride] | 32% | 4% |  | 
CNC[C@@H](O)[C@H](c1ccccc1)N1C(=O)C2(CCCCC2)c2cc(C#N)ccc21 [Example 107, 1′-[(1S,2R)-2-hydroxy-3-(methylamino)-1-phenylpropyl]-2′-oxo-1′,2′-dihydrospiro[cyclohexane-1,3′-indole]-5′-carbonitrile hydrochloride] |  |  | 168 nM | 349 nM
CNC[C@@H](O)[C@H](c1ccccc1)N1C(=O)C2(CCCCC2)c2cc(Cl)ccc21 [Example 27, 5′-chloro-1′-[(1S,2R)-2-hydroxy-3-(methylamino)-1-phenylpropyl]spiro[cyclohexane-1,3′-indol]-2′(1′H)-one hydrochloride] |  |  | 423 nM | 89 nM
CCN(C)C[C@@H](O)[C@H](c1ccccc1)n1ccc2cc(OCc3ccccc3)ccc21 [Example 87, (1S,2R)-1-[5-(benzyloxy)-1H-indol-1-yl]-3-[ethyl(methyl)amino]-1-phenylpropan-2-ol hydrochloride] |  | 16% | 1120 nM | 
CNC[C@@H](O)[C@H](c1ccccc1)n1ccc2cc(Oc3ccccc3)ccc21 [Example 19, (1S,2R)-3-(methylamino)-1-[5-(phenoxy)-1H-indol-1-yl]-1-phenylpropan-2-ol hydrochloride] | 39% | 27% |  | 
CNC[C@@H](O)[C@H](c1ccccc1)n1ccc2cc(OCc3cccc(C)c3)ccc21 [Example 15, (1S,2R)-3-(methylamino)-1-{5-[(3-methylbenzyl)oxy]-1H-indol-1-yl}-1-phenylpropan-2-ol hydrochloride] |  |  | 809 nM | 88 nM
CNC[C@@H](O)[C@H](c1ccccc1)n1ccc2cc(OCc3cccc(F)c3)ccc21 [Example 12, (1S,2R)-1-{5-[(3-fluorobenzyl)oxy]-1H-indol-1-yl}-3-(methylamino)-1-phenylpropan-2-ol hydrochloride] |  |  | 979 nM | 36 nM
CNC[C@@H](O)[C@H](c1ccccc1)n1ccc2ccc(-c3ccccc3)cc21 [Example 22, (1S,2R)-3-(methylamino)-1-phenyl-1-(6-phenyl-1H-indol-1-yl)propan-2-ol hydrochloride] | 16% |  |  | 35 nM
